Data on 12 compounds can be found in patent US20100210649A1, “PYRIDAZINONES AND FURAN-CONTAINING COMPOUNDS” (Sloan-Kettering Institute for Cancer Research, priority 2006, published 2010).

The subject of assay [1] is H827. The assay is described as follows: Non Small Cell Lung Cancer proliferation assay (Alamar Blue reduction), H827. It is filed as cell-based. As for the experimental part:
[…] are grown and maintained in Corning 175 cm2 flasks in RPMI 1640 media supplemented with 10% FBS, 1% antibiotic solution, 1% additional glutamine and pyruvate. These cells have a doubling time of 1-2 days. All cell types are adherent and grow in colonies. The cells should be kept at a density between 50,000 cells/mL -500,000 cells/mL to provide for optimum growth and adequate nutrition. The cell line should be maintained at 37° C. in a humidified atmosphere with 5% CO2 in a sterile cell culture incubator.
Non Small Cell Lung Cancer Proliferation Assay. To perform the assay, the Non Small Cell Lung Cancer lines are diluted in media and plated into 384 well microplates at a final density of 250 cells in […]. To ensure consistency and minimal pipetting error, the cells are plated using the Multidrop 384 with the following settings: Rocker Switch set at 384, Volume 45 and Column 24.
Low Controls for this assay are made by treating Non Small Cell Lung Cancer cells with 5 ul of staurosporine at 250 uM in 10% DMSO and 1% SDS. [Final concentration in this assay is 25 uM staurosporine in 1% DMSO and 0.1% SDS.]
High Controls for this assay are made by treating Non Small Cell Lung Cancer cells with 5 ul of 10% DMSO. [Final concentration in this assay is 1% DMSO].
The remaining wells of the 384 microplate may be treated with different compounds depending on the study. Important Note: All compounds for testing in this assay should be done at the final concentration of 1% DMSO.
After addition, the cells are placed in cell culture incubator at 37° C. for 48 hours for complete treatment.
After drug treatment, cytotoxicity is measured by Alamar Blue reduction. 5 μL of Alamar Blue is added to the 384 microplates using the Flexdrop.
The cells are incubated for 48 hours at 37° C. to complete the Alamar Blue reduction.
The final step in the assay is to measure the amount of Alamar Blue reduction. […] The Alamar Blue fluorescence is measured at an excitation of 530 nm and emission of 590 nm.
For the NSCLC project, the cell based assay was screened against a small molecule library of approximately 200,000 compounds. The compound library is stored in our automated robotic freezer (Biophile) at −20° C. in 100% DMSO. Compound freeze and thaw cycles are kept to a minimum. Compounds for use are diluted into the appropriate concentration and plated into 384 well microplates using our custom built low volume 384-well head tool (TPS 384, Apricot Designs Inc., CA, USA). This assay was performed on a fully automated linear track robotic platform (CRS F3 Robot System, Thermo Electron Corp., Ontario, Canada) utilizing several integrated peripherals for plate handling, liquid dispensing, and readout detection. First, non-small cell lung cancer cell lines are dispensed into 384 well microplates (Corning #3712 Tissue Culture Treated Plate, Corning, N.Y., USA) with 5 μL of test compounds at 100 uM in 10% DMSO for screening studies or […] in 10% DMSO to 50 nM in 10% DMSO for dose response studies. The microplates are then placed at 37° C. for 48 hours to complete treatment of cells with compounds. Next, 5 ul of alamar blue was added using a liquid dispenser (Flexprop Precision Dispenser, Perkin Elmer, Mass., USA) and incubated for 48 hours at 37° C. The alamar blue prompt fluorescence was measured on Victor V (Victor^3 V, Perkin Elmer, Mass., USA) and output data files were loaded into ORIS (Oncology Research Informatics System, MSKCC, NY, USA), a screening data acquisition and analysis platform.
Background: Resazurin is reduced to fluorescent resorufin, in cell work by metabolically active cells.

The subject of assay [2] is NHBE (normal human bronchiolar epithelial cells). The assay is described as follows: cells.
In assay [3] the test system is H1975. The assay is described as follows: [3H]-thymidine incorporation assay, H1975. It is filed as cell-based, human. The settings on record: H1975, mutant EGFR. Here is the method: (§1) FIGS. 41A-41B. SKI-267077 inhibits DNA synthesis. SKI-267077 was used to elucidate the mechanism by which this agent inhibits cell growth.
(§2) [^3H]-thymidine incorporation assay. Cells were seeded in 12-well plates at a density of 100 000 cells/well and treated with inhibitors for 24 hours. H3-thymidine (3 μCi/mL) was then added for 3 hours. Cells were washed twice with PBS, fixed with cold 10% TCA (in PBS) for 30 min then lysed with 0.5% NaOH/0.5% SDS. DNA was scraped from the wells and the amount of H3-thymidine incorporated determined by liquid scintillation counting.
(Uptake of a labelled nucleoside into DNA is a usual measure of proliferation.)

Assay [4] concerns H3255. The assay is described as follows: [3H]-thymidine incorporation assay, H3255. The assay is classed as cell-based, human. Conditions: H3255, mutant EGFR. As for the experimental part: as §1, §2
Assay [5] has as its system caspase 3/7. The assay is described as follows: Caspase 3/7 enzyme activity assay in cell extracts. The assay is classed as cell-based, human. The settings on record: H2030 cells, 1 μM, 48 h, whole cell extracts. As for the experimental part:
FIG. 3. Activation of caspase 3/7 by SKI-267077. H2030 cells were treated with 1 μM SKI-267077 for 48 h and then caspase 3/7 activity measured in whole cell extracts.
Caspase 3/7 enzyme activity assay. Apoptosis was determined by measuring the enzymatic activity of caspase 3/7 in cell homogenates. Cells were plated at a density of 10,000 cells per well in 96-well plates and treated immediately with drugs for 24-72 h. Caspase 3/7 activity will be determined in cell extracts using Z-DEVD-R110 (rhodamine 110 conjugated to the caspase substrate Z-DEVD) as substrate (Promega). The fluorescence of the cleaved substrate was measured using a micro-titer fluorescence plate reader (Ex: 499 nm, Em: 521 nm).
SKI-267077 stimulates the enzymatic activity of caspase 3/7.

Assay [6] has as its system cells. The assay is described as follows: Annexin V binding (FACS) apoptosis assay. The assay is classed as cell-based. The settings on record: 48 hours, FITC-labeled annexin V. As for the experimental part: FIG. 42. SKI-267077 induces apoptosis. Cells were treated for 48 hours with SKI-267077 and then binding of FITC-labeled annexin V to cells determined FACS analysis was used to determine the amount of annexin V-positive cells.

The test system of assay [7] is p70 S6 kinase. The assay is described as follows: Phosphoprotein array, p70 S6 kinase. The assay is classed as cell-based. The settings on record: cells treated for 24 hours; PI-3kinase signaling pathway. Here is the method: (§3) FIG. 43A-43C. A phosphoprotein array was used to determine which signaling pathways were affected by treatment of cells with SKI-267077. […] A phosphoprotein array (R and D Systems) was used to measure the level of phosphorylation of cellular proteins. Protein phosphorylation was determined according to the manufacturer's instructions.

Assay [8] has as its system MAPK isoforms ERK1 and ERK2. The assay is described as follows: Phosphoprotein array, ERK1 and ERK2. The assay is classed as cell-based. Conditions: cells treated for 24 hours; MAPK signaling pathway. As for the experimental part:
as §3

[9] abbreviates: Homo sapiens, read-out: Dose Response (uM) H827.
Setting [10] is: Homo sapiens; read-out: Dose Response (uM) H827.
Setting [11] is: Homo sapiens, NHBE, read-out: IC50(uM) NHBE.

Read-outs that look alike come from different tables or passages of the source.

Regarding `O=c1c(Cl)c(Cl)cnn1-c1ccccc1` [compound 257014], the IC50 in assay [1] (setting [9]) amounted to 0.24 µM. In the case of `O=c1c(Cl)c(Cl)cnn1-c1cccc(C(F)(F)F)c1` [compound 176729], in assay [1] (setting [10]), the IC50 is 0.17 µM. For the compound `Cc1ccc(NC(=O)c2ccc([N+](=O)[O-])o2)cc1` [compound 98697], the IC50 in assay [2] (setting [11]) was 29.4 µM. Take `Cc1ccc(-n2ncc(Cl)c(Cl)c2=O)cc1` [compound 257016]: the IC50 in assay [1] (setting [10]) was found to be 0.29 µM. As to `O=c1c(Br)c(Br)cnn1-c1ccccc1` [compound 257015], the IC50 in assay [1] (setting [10]) worked out at 0.17 µM. For `O=C(Nc1ccc(Cl)cc1)c1ccc([N+](=O)[O-])o1` [compound 98698, 5-nitro-furan-2-carboxylic acid (4-chloro-phenyl)-amide], the IC50 in assay [2] (setting [11]) came to 21.4 µM. Take `Cc1cccc(-n2ncc(Cl)c(Cl)c2=O)c1C` [compound 257018]: the IC50 in assay [1] (setting [10]) came to 0.5 µM. For `Cc1cccc(NC(=O)c2ccc([N+](=O)[O-])o2)c1` [compound 71762], the IC50 in assay [2] (Homo sapiens, NHBE, read-out: IC50(uM) NHBE, phenylfuran-2-carboxamide SAR summary) was 15.8 µM; in assay [2] (read-out: IC50(uM) NHBE, phenylfuran-2-carboxamide SAR summary), 14.8 µM.

Regarding `Cc1cc(C)cc(-n2ncc(Cl)c(Cl)c2=O)c1` [compound 257020], the IC50 in assay [1] (setting [10]) was found to be 0.3 µM. With `Cc1cccc(-n2ncc(Cl)c(Cl)c2=O)c1` [compound 104122, 4,5-dichloro-2-m-tolyl-2H-pyridazin-3-one], the IC50 in assay [1] (setting [9]) turned out to be 0.09 µM. Turning to `Cc1ccc(-n2ncc(Cl)c(Cl)c2=O)cc1C` [compound 257019], in assay [1] (setting [10]), the IC50 is 0.32 µM. `O=c1c(Cl)c(Cl)cnn1-c1ccc(Cl)cc1Cl` [compound 267077]: the DNA synthesis entry in assay [3] and in assay [4] was “dose-dependent reduction in DNA synthesis” each time. Further, the “activity of caspase 3/7” value in assay [5] is recorded as “increase in the activity of caspase 3/7”. The “apoptosis, binding of annexin-V to the cell surface” value in assay [6] is “induction of apoptosis”. Besides, the “phosphorylation of p70 S6 kinase” value in assay [7] is reported as “blocked phosphorylation”. For the same compound, the “phosphorylation of ERK1 and ERK2” value in assay [8] is “reduced phosphorylation of the MAPK isoforms ERK1 and ERK2”.
